Bounds are passed on as bounds.

T1 sequence (O00398 whole entry, the tested form may be a part): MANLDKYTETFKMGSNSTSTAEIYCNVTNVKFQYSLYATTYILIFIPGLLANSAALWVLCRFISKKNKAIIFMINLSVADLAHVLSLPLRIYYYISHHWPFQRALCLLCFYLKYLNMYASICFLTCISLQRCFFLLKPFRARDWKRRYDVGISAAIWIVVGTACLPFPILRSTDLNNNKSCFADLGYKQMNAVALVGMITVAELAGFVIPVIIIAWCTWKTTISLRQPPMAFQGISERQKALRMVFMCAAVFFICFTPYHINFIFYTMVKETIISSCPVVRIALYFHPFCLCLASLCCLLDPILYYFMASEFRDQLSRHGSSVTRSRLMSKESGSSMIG

The first experiment addresses T1, P2Y10-Gα16 (Homo sapiens, UniProt O00398).
T1 construct: "P2Y10-Gα16"; fused on or other part: The promiscuous G-protein alpha subunit G alpha 16 (GNA15) is fused to the receptor; By the printed name order it probably sits at the C-terminus; It is a coupling handle and not part of the key
Assay: not given
As to conditions: induction of Ca2+ transients via P2Y10-Gα16; cited from earlier work.
With Lysophosphatidic acid [LPA], the EC50 is 130 nM. On to `CCCCCCCCCCCCC/C=C/[C@@H](O)[C@@H](N)COP(=O)(O)O` [Compound S1P, sphingosine 1-phosphate], for which the EC50 was 53 nM.

Another experiment deals with LPA2 receptor (Homo sapiens, UniProt Q9HBW0). Description: LPA2R-calciumflux assay. Format: cell-based. As to conditions: U2OS cells recombinant expressing LPA2R; LPA-induced intracellular calcium signal (FLIPR Tetra); 10 concentrations from 30 uM to 1 nM, 1% DMSO. The text has this: Description of the LPA2R Assay
LPA2 receptor, sequence (Q9HBW0 whole entry): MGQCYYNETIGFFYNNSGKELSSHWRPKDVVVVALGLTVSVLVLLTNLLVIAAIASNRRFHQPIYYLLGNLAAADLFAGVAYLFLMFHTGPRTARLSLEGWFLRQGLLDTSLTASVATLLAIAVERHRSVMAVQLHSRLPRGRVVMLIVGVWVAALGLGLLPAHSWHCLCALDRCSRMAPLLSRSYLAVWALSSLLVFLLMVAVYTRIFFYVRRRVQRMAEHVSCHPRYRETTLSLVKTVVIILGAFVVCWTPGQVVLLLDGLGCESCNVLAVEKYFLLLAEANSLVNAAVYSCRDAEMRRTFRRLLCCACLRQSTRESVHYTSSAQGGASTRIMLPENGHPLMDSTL
Cell Cultivation/Propagation
LPA2R-calciumflux Assay Protocol
The assay detects intra cellular calcium which is generated by cells upon activation of the LPA2 receptor by its ligand LPA. This transient calcium mobilisation can be monitored using a commercial calcium detection kit (e.g. from Molecular Devices). The main component of such a kit is a dye, which becomes fluorescent when calcium is present—a transient fluorescence signal after laddition of a ligand to a test well are the result. Readers like the FLIPR (from Molecular Devices) can be used to monitor such transient “Ca-flux” signals.
The signals are calculated according to peak maximum minus base line. Compounds which are antogonists of LPA lead to a decreased mobilisation of intracellular calcium and thus to a lower signal. The assay is performed in microplates (384 wells per plate).
The assay itself is run according to the following procedure: • 50 uL seed cells (10000 cells/well in DMEM buffer) • Incubate 24 h at 37° C., 10% CO2 • aspirate medium • 50 uL add calcium dye 1×HBSS/HEPES buffer • incubate 1 h at 37° C. (“loading”) • equilibrate 10 min at RT • 5 uL add compounds in HEPES buffer • shake 10 sec. @ 1000 rpm • incubate 15 min at RT • 20 uL add LPA (in the FLIPR Tetra) in KREBS-Puffer/BSA & measurement
The cells are seeded in DMEM buffer (DMEM, 10% FCS, 10 mM HEPES, 1% Pen/Strep).
Dye loading is done in HBSS/HEPES buffer (100 mL 10×HBSS+20 mL 1M HEPES+880 mL water, pH 7.4)
The LPA is added in Krebs/BSA buffer (120 mM NaCl, 5 mM KCl, 0.62 mM MgSO4, 1.8 mM CaCl2, 10 mM HEPES, 6 mM D(+)-Glucose, 0.2% BSA, pH 7.4).
The compounds are pre-diluted in HEPES buffer (20 mM, pH 7.4), whereby the final DMSO content in the assay is kept at 1%. The compounds are pre-diluted in order to generate dose response series on the microplates. The dose response series consist of 10 concentrations for each compound from 30 uM final to 1 nM final. From all compound wells the resulting signals are referred to control wells (located on each plate besides the compound wells) in terms of % activity.
[formula] From these % activity values—along with the corresponding compound concentrations—IC50 values are fitted for each compound using standard fitting programs such as Graphpad Prism. Here the method “log(inhibitor) vs. response—Variable slope” is used. Reader Settings (FLIPR Tetra) • ExcWLength:470—495 • Em.Wlength: 515—575 • Gain: 50 • Exp. Time: 0,4 • Exc.Intensity: 80 • READ with TF • First read interval: 1,00 s • Number of first reads: 240 • Reads before dispense: 10 • Second read interval: 1,00 s • Number of second reads: 0 • Save Images No
On the technique in general: Calcium assays in cells follow changes in intracellular calcium, usually with a dye or a luminescent sensor.
For the compound `COc1ccc(-c2n[nH]c3c2C(O)(C(F)(F)F)CC(=O)N3)cc1OC` (stereo not drawn) [Compound 31, 3-(3,4-Dimethoxy-phenyl)-4-hydroxy-4-trifluoromethyl-1,4,5,7-tetrahydro-pyrazolo[3,4-b]pyridin-6-one], the IC50 is below 1000 nM.

With `O=C1CC(O)(C(F)(F)F)c2c(-c3cccc(Br)c3)n[nH]c2N1` (stereo not drawn) [Compound 13, 3-(3-Bromo-phenyl)-4-hydroxy-4-trifluoromethyl-1,4,5,7-tetrahydro-pyrazolo[3,4-b]pyridin-6-one], the IC50 was below 1000 nM. Still for that read-out and setting: the same measure for `O=C1CC(O)(C(F)(F)F)c2c(-c3c[nH]c4ccccc34)n[nH]c2N1` (stereo not drawn) [Compound 29, 4-Hydroxy-3-(1H-indol-3-yl)-4-trifluoromethyl-1,4,5,7-tetrahydro-pyrazolo[3,4-b]pyridin-6-one]: above 10000 nM; for `O=C1CC(O)(C(F)(F)F)c2c(-c3ccco3)n[nH]c2N1` (stereo not drawn) [Compound 30, 3-Furan-2-yl-4-hydroxy-4-trifluoromethyl-1,4,5,7-tetrahydro-pyrazolo[3,4-b]pyridin-6-one]: above 10000 nM.

As a reminder, the EC50 is the midpoint of the concentration-response curve. A word on the IC50: it is the concentration that inhibits the measured activity by half.
